# Measured values reported in patent publication EP4741386A1 (Jiangsu Yahong Meditech Co., Ltd., priority 2023, dated 2025).
# Molecular target: T1, Recombinant human His6-USP1/His6-UAF1 complex protein (Homo sapiens, UniProt O94782)
# T1 construct: His6; purchased R&D E-568-050
# Assay: In vitro inhibitory activity against USP1 (Ubiquitin Rhodamine 110 fluorescence detection, 384-well plate)
# Assay type: biochemical
# Conditions: Ub-Rho substrate, 1 hour pre-incubation, read after 30 minutes
# Method: Test Example 1: In vitro inhibitory activity against USP1 […]
# Experimental object: to screen compounds with inhibitory activity against USP1 […] by a fluorescence detection method, using a 384-well plate.
# Experimental materials: Recombinant human His6-USP1/His6-UAF1 complex protein (R&D, Cat. No.: E-568-050), Ubiquitin Rhodamine 110 protein (Ub-Rho) (R&D, Cat. No.: U-555-050), 384-well plate (Perkin Elmer, Cat. No.: 6007279); all compounds were dissolved in 100% DMSO to obtain 50 mM stock solutions.
# • 1) Preparation of 1 × assay buffer: 1 × assay buffer (modified Tris buffer) was prepared; • 2) Dilution of compounds: the compounds were transferred to an assay plate via Echo.
# T1 sequence (O94782 whole entry): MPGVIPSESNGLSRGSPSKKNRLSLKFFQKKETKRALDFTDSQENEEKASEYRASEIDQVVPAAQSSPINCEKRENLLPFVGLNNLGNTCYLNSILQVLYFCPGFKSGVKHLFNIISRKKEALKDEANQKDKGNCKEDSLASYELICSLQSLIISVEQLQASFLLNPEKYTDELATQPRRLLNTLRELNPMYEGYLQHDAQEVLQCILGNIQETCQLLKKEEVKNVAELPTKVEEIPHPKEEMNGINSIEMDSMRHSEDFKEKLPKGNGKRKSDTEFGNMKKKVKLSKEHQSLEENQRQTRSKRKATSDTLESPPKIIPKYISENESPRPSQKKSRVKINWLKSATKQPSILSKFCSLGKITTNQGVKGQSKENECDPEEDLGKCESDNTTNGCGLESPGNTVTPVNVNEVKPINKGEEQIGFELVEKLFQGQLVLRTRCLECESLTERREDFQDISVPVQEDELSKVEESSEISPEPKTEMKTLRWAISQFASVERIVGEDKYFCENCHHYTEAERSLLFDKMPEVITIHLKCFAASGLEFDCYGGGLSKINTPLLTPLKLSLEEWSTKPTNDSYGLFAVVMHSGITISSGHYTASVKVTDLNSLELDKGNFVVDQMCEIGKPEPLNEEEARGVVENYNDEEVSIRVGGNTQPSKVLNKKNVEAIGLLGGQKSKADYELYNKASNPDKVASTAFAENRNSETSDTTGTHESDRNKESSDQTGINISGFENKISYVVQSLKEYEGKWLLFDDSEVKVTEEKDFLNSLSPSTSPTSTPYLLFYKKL
# T1 sequence (Q8TAF3 whole entry partner): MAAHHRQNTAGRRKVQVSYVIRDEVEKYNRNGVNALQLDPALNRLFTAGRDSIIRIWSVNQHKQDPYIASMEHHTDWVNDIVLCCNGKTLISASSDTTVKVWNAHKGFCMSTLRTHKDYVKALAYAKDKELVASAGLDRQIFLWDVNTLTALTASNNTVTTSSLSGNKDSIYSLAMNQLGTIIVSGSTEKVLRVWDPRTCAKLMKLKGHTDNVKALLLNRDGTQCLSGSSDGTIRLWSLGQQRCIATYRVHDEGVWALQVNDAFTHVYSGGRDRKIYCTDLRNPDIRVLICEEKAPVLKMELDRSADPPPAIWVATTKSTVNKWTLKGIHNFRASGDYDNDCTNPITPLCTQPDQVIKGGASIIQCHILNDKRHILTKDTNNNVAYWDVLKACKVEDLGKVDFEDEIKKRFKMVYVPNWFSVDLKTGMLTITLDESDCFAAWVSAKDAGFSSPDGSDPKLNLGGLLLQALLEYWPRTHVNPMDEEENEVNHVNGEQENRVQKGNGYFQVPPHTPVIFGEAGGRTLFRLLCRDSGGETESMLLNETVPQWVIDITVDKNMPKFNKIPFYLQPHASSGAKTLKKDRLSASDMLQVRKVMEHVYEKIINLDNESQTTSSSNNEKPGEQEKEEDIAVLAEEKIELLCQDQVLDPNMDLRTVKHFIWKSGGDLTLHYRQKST
row,SMILES,IC50
1,"COc1cnc(-c2c(OC)cnn2C2CC2)nc1NCc1ccc(-c2ccccn2)cc1 [Example 183, 2-(1-Cyclopropyl-4-methoxy-1H-pyrazol-5-yl)-5-methoxy-N-(4-(pyridin-2-yl)benzyl)pyrimidin-4-amine]",0.164 µM
2,"CC(C)c1ccccc1-c1ncc(C(F)(F)F)c(NCC2CCN(c3ccccn3)CC2)n1 [Example 76, 2-(2-Isopropylphenyl)-N-((1-(pyridin-2-yl)piperidin-4-yl)methyl)-5-(trifluoromethyl)pyrimidin-4-amine]",0.0301 µM
3,"CC(C)Oc1cnc(-c2ccccc2C(C)C)nc1NCC12CCC(c3ccc(C(F)(F)F)cn3)(CC1)CC2 [Example 74, 5-Isopropoxy-2-(2-isopropylphenyl)-N-((4-(5-(trifluoromethyl)pyridin-2-yl)bicyclo[2.2.2]octan-1-yl)methyl)pyrimidin-4-amine]",0.873 µM
4,"COc1cnc(-c2c(OC)cnn2C(C)C)nc1NCc1ccc(-c2ccccn2)cc1 [Example 178, 2-(1-Isopropyl-4-methoxy-1H-pyrazol-5-yl)-5-methoxy-N-(4-(pyridin-2-yl)benzyl)pyrimidin-4-amine]",0.11 µM
5,"COc1cnc(-c2c(C)noc2C(C)C)nc1N(C)CC1CCN(c2ccccn2)CC1 [Example 186, 2-(5-Isopropyl-3-methylisoxazol-4-yl)-5-methoxy-N-methyl-N-((1-(pyridin-2-yl)piperidin-4-yl)methyl)pyrimidin-4-amine]",0.066 µM
6,"COC1CC(Oc2ccc(CNc3nc(-c4ccccc4C(C)C)nc4ccoc34)cc2)C1 (stereo not shown) [Example 80, 2-(2-Isopropylphenyl)-N-(4-(3-methoxycyclobutoxy)benzyl)furo[3,2-d]pyrimidin-4-amine]",0.026 µM
7,"COc1cnc(-c2c(C)noc2C(C)C)nc1NCc1ccc(-c2nc(C(F)(F)F)cn2C)cc1 [Example 188, 2-(5-Isopropyl-3-methylisoxazol-4-yl)-5-methoxy-N-(4-(1-methyl-4-(trifluoromethyl)-1H-imidazol-2-vl)benzyl)pyrimidin-4-amine]",0.015 µM
8,"Cc1ncn(C(C)C)c1-c1nc(NCC23CCC(c4ccc(C(F)(F)F)cn4)(CC2)CC3)c2occc2n1 [Example 150, 2-(1-Isopropyl-4-methyl-1H-imidazol-5-yl)-N-((4-(5-(trifluoromethyl)pyridin-2-yl)bicyclo[2.2.2]octan-1-yl)methyl)furo[3,2-d]pyrimidin-4-amine]",0.431 µM
9,"COc1cnc(-c2c(OC)ncnc2C2CC2)nc1N(C)CC12CCC(c3nc(C(F)(F)F)cn3C)(CC1)OC2 [Example S10, 4'-Cyclopropyl-5,6'-dimethoxy-N-methyl-N-((1-(1-methyl-4-(trifluoromethyl)-1H-imidazol-2-yl)-2-oxabicyclo[2.2.2]oct-4-yl)methyl)-[2,5'-bipyrimidin]-4-amine]",0.019 µM
10,"[2H]C([2H])([2H])Oc1ncnc(C2CC2)c1-c1ncc(OC)c(N(C)CC23CCC(c4nc(C(F)(F)F)cn4C)(CC2)CC3)n1 [Example S9, 4'-Cyclopropyl-5-methoxy-6'-(methoxy-D3)-N-methyl-N-((4-(1-methyl-4-(trifluoromethyl)-1H-imidazol-2-yl)bicyclo[2.2.2]oct-1-yl)methyl)-[2,5'-bipyrimidin]-4-amine]",0.0035 µM
11,"Cc1ncn(C(C)C)c1-c1nc(NCc2ccc(-c3nc(C(F)(F)F)cn3C)cc2)c2occc2n1 [Example 149, 2-(1-Isopropyl-4-methyl-1H-imidazol-5-yl)-N-(4-(1-methyl-4-(trifluoromethyl)-1H-imidazol-2-yl)benzyl)furo[3,2-d]pyrimidin-4-amine]",0.0692 µM
12,"COc1cnc(-c2c(C)noc2C(C)C)nc1NCC1CCN(c2nc(C(F)(F)F)cn2C)CC1 [Example 187, 2-(5-Isopropyl-3-methylisoxazol-4-yl)-5-methoxy-N-((1-(1-methyl-4-(trifluoromethyl)-1H-imidazol-2-yl)piperidin-4-yl)methyl)pyrimidin-4-amine]",0.0235 µM
13,"COc1ncnc(C2CC2)c1-c1nc(NCc2ccc3c(c2)CCN(C)C3=O)c2occc2n1 [Example 114, 6-(((2-(4-Cyclopropyl-6-methoxypyrimidin-5-yl)furo[3,2-d]pyrimidin-4-yl)amino)methyl)-2-methyl-3,4-dihydroisoquinolin-1(2H)-one]",0.648 µM
14,"CC(C)c1ccccc1-c1ncc(C(F)(F)F)c(NCc2ccc(-c3ccccn3)cc2)n1 [Example 16, 2-(2-Isopropylphenyl)-N-(4-(pyridin-2-yl)benzyl)-5-(trifluoromethyl)pyrimidin-4-amine]",0.0306 µM
15,"COc1cnc(-c2cncnc2C2CC2)nc1NCc1ccc(-c2nc(C(F)F)cn2C)cc1 [Example 195, 4'-Cyclopropyl-N-(4-(4-(difluoromethyl)-1-methyl-1H-imidazol-2-yl)benzyl)-5-methoxy-[2,5'-bipyrimidin]-4-amine]",0.243 µM
16,"COc1cnc(-c2c(OC)ncnc2C2(F)CC2)nc1NCC1CCC(c2nc(C(F)(F)F)cn2C2CC2)CC1 [Example S38, N-(((1R,4R)-4-(1-cyclopropyl-4-(trifluoromethyl)-1H-imidazol-2-yl)cyclohexyl)methyl)-4'-(1-fluorocyclopropyl)-5,6'-dimethoxy-[2,5'-bipyrimidin]-4-amine]",0.22 µM

row,SMILES,IC50
1,"COc1cnc(-c2ccccc2C(C)C)nc1NCc1ccc(OCc2ccccn2)cc1 [Example 67, 2-(2-Isopropylphenyl)-5-methoxy-N-(4-(pyridin-2-ylmethoxy)benzyl)pyrimidin-4-amine]",0.0053 µM
2,"COc1cnc(-c2ccccc2C(C)C)nc1N(C)Cc1ccc(-c2ccccn2)cc1 [Example 1, 2-(2-isopropylphenyl)-5-methoxy-N-methyl-N-(4-(pyridin-2-yl)benzyl)pyrimidin-4-amine]",0.026 µM
3,"CC(C)c1ccccc1-c1nc(NCc2ccc3c(c2)CCN(C(C)C)C3=O)c2occc2n1 [Example 78, 2-Isopropyl-6-(((2-(2-isopropylphenyl)furo[3,2-d]pyrimidin-4-yl)amino)methyl)-3,4-dihydroisoquinolin-1(2H)-one]",0.0064 µM
4,"COc1cnc(-c2c(OC)ncnc2C2CC2)nc1N(C)CC12CCC(c3nc(C(F)(F)F)cn3C)(CC1)OC2 [Example 212, 4'-cyclopropyl-5,6'-dimethoxy-N-methyl-N-((1-(1-methyl-4-(trifluoromethyl)-1H-imidazol-2-yl)-2-oxabicyclo[2.2.2]octan-4-yl)methyl)-[2,5'-bipyrimidin]-4-amine]",0.019 µM
5,"COc1ncnc(C2CC2)c1-c1ncc(OC(C)C)c(NCC23CCC(c4ccc(C(F)(F)F)cn4)(CC2)CC3)n1 [Example 112, 4'-Cyclopropyl-5-isopropoxy-6'-methoxy-N-((4-(5-(trifluoromethyl)pyridin-2-yl)bicyclo[2.2.2]octan-1-yl)methyl)-[2,5'-bipyrimidin]-4-amine]",0.266 µM
6,"COc1ncnc(C2CC2)c1-c1nc(NCc2ccc(-c3ccccn3)cc2)c2[nH]ccc2n1 [Example 37, 2-(4-Cyclopropyl-6-methoxypyrimidin-5-yl)-N-(4-(pyridin-2-yl)benzyl)-5H-pyrrolo[3,2-d]pyrimidin-4-amine]",0.051 µM
7,"COc1cnc(-c2cccc3ccn(C)c23)nc1NCc1ccc(-n2nc(C(F)(F)F)cc2C)cc1 [Example 144, 5-Methoxy-2-(1-methyl-1H-indol-7-yl)-N-(4-(5-methyl-3-(trifluoromethyl)-1H-pyrazol-1-yl)benzyl)pyrimidin-4-amine]",0.0686 µM
8,"CCOCCOc1ccc(CNc2nc(-c3ccccc3C(C)C)nc3ccoc23)cc1 [Example 79, N-(4-(2-Ethoxyethoxy)benzyl)-2-(2-isopropylphenyl)furo[3,2-d]pyrimidin-4-amine]",0.0045 µM
9,"COc1cnc(-c2c(OC)ncnc2C2CC2)nc1N(Cc1ccc(-c2nc(C(F)(F)F)cn2C)cc1)C1CCOC1 (stereo not shown) [Example 140, 4'-Cyclopropyl-5,6'-dimethoxy-N-(4-(1-methyl-4-(trifluoromethyl)-1H-imidazol-2-yl)benzyl)-N-(tetrahydrofuran-3-yl)-[2,5'-bipyrimidin]-4-amine]",0.073 µM
10,"COc1cnc(-c2ccccc2C(C)C)nc1NCc1ccc2c(c1)CN(C1CCC(=O)NC1=O)C2=O (stereo not shown) [Example 41, 3-(5-(((2-(2-Isopropylphenyl)-5-methoxypyrimidin-4-yl)amino)methyl)-1-oxoisoindolin-2-yl)piperidine-2,6-dione]",1.26 µM
11,"COc1cnc(-c2c(C)cnn2C2CC2)nc1N(O)Cc1ccc(-c2nc(C(F)(F)F)cn2C)cc1 [Example 205, N-(2-(1-cyclopropyl-4-methyl-1H-pyrazol-5-yl)-5-methoxypyrimidin-4-yl)-N-(4-(1-methyl-4-(trifluoromethyl)-1H-imidazol-2-yl)benzyl)hydroxylamine]",0.043 µM
12,"COc1cnc(-c2c(C)ncn2C(C)C)nc1NCc1ccc(-c2nc(C(F)(F)F)cn2C)cc1 [Example 147, 2-(1-Isopropyl-4-methyl-1H-imidazol-5-yl)-5-methoxy-N-(4-(1-methyl-4-(trifluoromethyl)-1H-imidazol-2-yl)benzyl)pyrimidin-4-amine]",0.364 µM
13,"CC(C)c1ccccc1-c1ncc2c(n1)N(CC1CCC(c3nc(C(F)(F)F)cn3C)CC1)CCO2 [Example 13, 2-(2-Isopropylphenyl)-8-(((1R,4R)-4-(1-methyl-4-(trifluoromethyl)-1H-imidazol-2-yl)cyclohexyl)methyl)-7,8-dihydro-6H-pyrimido [5,4-b][1,4] oxazine]",0.0019 µM
14,"COc1cnn(C(C)C)c1-c1nc(NCc2ccc(-c3ccccn3)cc2)c2occc2n1 [Example 181, 2-(1-Isopropyl-4-methoxy-1H-pyrazol-5-yl)-N-(4-(pyridin-2-yl)benzyl)furo[3,2-d]pyrimidin-4-amine]",0.027 µM
15,COc1cnc(-c2c(C)ncnc2OC2CC2)nc1NCC12CCC(c3nc(C(F)(F)F)cn3C)(CC1)CC2 [Example S19],0.3 µM
